From US7566713B2, “Immuno inhibitory heterocyclic compounds” (Medigene Limited, priority 2004, dated 2009) come the findings set out here.

The assay deals with T1, CD80-CD28 interaction (Homo sapiens, UniProt P33681).
T1 sequence (P33681 35-242 limits assumed): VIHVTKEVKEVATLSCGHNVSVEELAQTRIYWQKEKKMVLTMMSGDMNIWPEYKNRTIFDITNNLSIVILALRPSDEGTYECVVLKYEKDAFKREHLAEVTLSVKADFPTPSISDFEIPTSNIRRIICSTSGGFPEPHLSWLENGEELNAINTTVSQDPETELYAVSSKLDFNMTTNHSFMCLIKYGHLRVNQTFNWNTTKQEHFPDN
Kind of assay: cell free Homogenous Time Resolved Fluorescence (TRFret) assay, inhibition of the CD80-CD28 interaction. Format: binding. The settings on record: HTRF assay; concentration series 100 μM-1.7 nM; 4 hours at room temperature. On the procedure: The examples described above were tested in a cell free Homogenous Time Resolved Fluorescence (TRFret) assay to determine their activity as inhibitors of the CD80-CD28 interaction.
In the assay, europium and allophycocyanin (APC) are associated with CD28 and CD80 indirectly (through antibody linkers) to form a complex, which brings the europium and APC into close proximity to generate a signal. The complex comprises the following six proteins: fluorescent label 1, linker antibody 1, CD28 fusion protein, CD80 fusion protein, linker antibody 2, and fluorescent label 2. The table below describes these reagents in greater detail.
On formation of the complex, europium and APC are brought into proximity and a signal is generated.
Non-specific interaction was measured by substituting a mouse Fab fragment (C215) for the CD80 mouse Fab fragment fusion protein (1.9 μg/ml). The assay was carried out in black 384 well plates in a final volume of 30 μl. Assay buffer: 50 mM Tris-HCl, 150 mM NaCl pH7.8, containing 0.1% BSA (w/v) added just prior to use.
Compounds were added to the above reagents in a concentration series ranging between 100 μM-1.7 nM. The reaction was incubated for 4 hours at room temperature. Dual measurements were made using a Wallac Victor 1420 Multilabel Counter. First measurement: excitation 340 nm, emission 665 nm, delay 50 μs, window time 200 μs. second measurement: excitation 340 nm, emission 615 nm, delay 50 μs, window time 200 μs. Counts were automatically corrected for fluorescence crossover, quenching and background.
By EC50 is commonly meant the concentration needed to bring the measured effect to its halfway point. Low values mean greater potency, high ones weaker potency. In turn, `O=C(NCCCCN1CCCC1)c1ccc(-n2[nH]c3c4c(nnc3c2=O)CCCC4)cc1` [Example 5, 4-(3-Oxo-1,3,6,7,8,9-hexahydro-pyrazolo[4,3-c]cinnolin-2-yl)-N-(4-pyrrolidin-1-yl-butyl)-benzamide] came in with an EC50 of 60 nM. For `CN1C(C)(C)CC(NC(=O)c2ccc(-n3[nH]c4c5c(nnc4c3=O)CCCC5)cc2)CC1(C)C` [Example 6, 4-(3-Oxo-1,3,6,7,8,9-hexahydro-pyrazolo[4,3-c]cinnolin-2-yl)-N-(1,2,2,6,6-pentamethyl-piperidin-4-yl)-benzamide] the value was 93 nM; for `O=C(O)c1ccc(-n2[nH]c3c4c(nnc3c2=O)CCCC4)cc1` [Example 1], more than 10000 nM; for `O=C(NCCCNC1CCCCC1)c1ccc(-n2[nH]c3c4c(nnc3c2=O)CCCC4)cc1` [Example 4, N-(3-Cyclohexylamino-propyl)-4-(3-oxo-1 ,3,6,7,8,9-hexahydro-pyrazolo[4,3-c]cinnolin-2-yl)-benzamide], 101 nM. For `O=C(NCC(F)F)c1ccc(-n2[nH]c3c4c(nnc3c2=O)CCCC4)cc1` [Example 3, N-(2,2-Difluoro-ethyl)-4-(3-oxo-1 ,3,6,7,8,9-hexahydro-pyrazolo[4,3-c]cinnolin-2-yl)-benzamide] the value was 790 nM. Regarding `CN(C)CCCNC(=O)c1ccc(-n2[nH]c3c4c(nnc3c2=O)CCCC4)cc1` [Example 2, N-(3-Dimethylamino-propyl)-4-(3-oxo-1,3,6,7,8,9-hexahydro-pyrazolo[4,3-c]cinnolin-2-yl)-benzamide], it took 63 nM to reach a half-maximal effect (EC50).
